Results on 16 compounds are retold here after patent US10828305B2 (SHANGHAI PHARMACEUTICALS HOLDING CO., LTD., priority 2016, dated 2020).

One may read the IC50 as the point on the concentration scale where inhibition reaches its midpoint.

One test relates to BT-474. Kind of test: Proliferation inhibition assay in vitro, BT-474 (CellTiter-Glo). The test is classed as cell-based. To be noted: Homo sapiens, 72 hours, read-out: IC50(nM) cell BT-474. The method, then:
(§1) Proliferation Inhibition Assay In Vitro of Cell Lines
(§2) 1. Cell culture and inoculation: on the first day of the experiment, normal cultured cells were taken in the exponential growth phase, the cells were dispersed by digesting, then the cell density was adjusted to 8.8×10^4 cells/mL for BT-474 and 6.6×10^4 cells/mL for N87, 90 μl of which were inoculated to each well in a 96-well cell culture plate; after inoculation, the microplate was placed at condition of 37° C., 5% CO2 overnight. 2. Dosing to cells: on the second day of the experiment, the microplate was taken out from incubator, […], of 10× compound was separately added to each well of the microplate, 2 duplicated wells were set for each concentration, 9 dosing concentrations were set for each compound. According to different cell lines, the initial concentration of each compound was different. Upon completion of addition, the microplate was placed at condition of 37° C., 5% CO2 for 72 hours. 3. Data acquisition: the microplate was taken out from the incubator and allowed to stand at room temperature to equilibrate for 30 minutes. 100 μl CellTiter-Glo® Luminescent Cell Viability Assay reaction solution which had been equilibrated at room temperature was added to each well and the microplate was shaken at 1300 rpm for 2 minutes at room temperature. The microplate was centrifuged at 2000 rpm for 1 minute in a HERAEUS Multifuge X1R and then allowed to equilibrate at room temperature for 10 minutes. The […] signal was measured on EnVision™.
A general note: Cellular ATP, detected with luciferase, serves as a proxy for viable cell number.

For the next test, the system named is N87. Kind of test: Proliferation inhibition assay in vitro, N87 (CellTiter-Glo). The conditions noted are these: Homo sapiens; 72 hours; read-out: IC50(nM) cell N87. The format is cell-based. How it is done: as §1, §2
The next test deals with ErbB2 kinase (Homo sapiens, UniProt P04626). Kind of test: Enzymatic experiment on ErbB2 (HTRF kinEASE-TK). The format is biochemical. The conditions noted are these: ATP 4 μM; read-out: Kinase IC50 (nM) in vitro ErbB2. The method, then:
(§3) Enzymatic Experiment on EGFR/ErbB2
(§4) Firstly, preparing 1× reaction buffer required for the kinase, 5× Enzymatic buffer (HEPES 20 mM pH7.0, NaN3 0.1%, BSA 0.05%, sodium orthovanadate 0.5 mM) in the HTRF kinEASE-TK kit was diluted to 1 time with deionized water, 50 nM Supplement Enzymatic buffer (SEB reagent), 1 mM MnCl2, 5 mM MgCl2 and 1 mM DTT were added. Secondly, preparing 5× compound, 10 mM test compound stock solution was diluted in multiple steps with DMSO in a 96-well compound plate to prepare 100× compound as initial concentration, which was then used as the first concentration to perform a 3-fold gradient dilution with DMSO to obtain 10 concentrations. Afterwards, 1 μl gradient dilution was added to 19 μl 1× reaction buffer to prepare 5× compound for use. Then 2 μl 5× compound was transferred from the 96 well plate into a 384-well plate. To the compound-free control wells was added with 2 μl the following liquid: 19 μl 1× reaction buffer with addition of 1 μl DMSO. To the blank control wells was added 2 μl 250 mM EDTA. The third step was enzymatic reaction, the kinase, substrate (TK Substrate-biotin) and ATP were formulated into 2.5× enzyme/substrate mixture and 2.5×ATP solution using 1× reaction buffer respectively. The final concentration of ErbB2 kinase was 0.06 ng/μl, the final concentration of ATP was 4 μM; the final concentration of EGFR kinase was 0.06 units/μl, the final concentration of ATP was 1.65 μM; 4 μl 2.5× enzyme/substrate mixture was added to a 384-well plate, which was incubated at room temperature for 5 minutes; 4 μl 2.5×ATP solution was added to each well and the mixture was allowed to react for 30 minutes at room temperature. The fourth step was termination of the reaction, HTRF Detection buffer was used to prepare a mixture of 2×TK Antibody-Eu(K) and Sa-XL665, the amount of TK Antibody-Eu(K) was 5 μl per well. After the enzymatic reaction was performed for 30 minutes, 10 μl of the above liquid was added to the 384-well plate and the mixture was allowed to react at room temperature for 1 hour. The data was measured on EnVision™, the laser of 337 nm wavelength was selected as the excitation light, RFU665 nM and RFU620 nM were measured, and […]/RFU620 nM×10000 was used as the final data for analysis.
A general note: In TR-FRET formats the signal depends on donor and acceptor labels being close together.

The target in the next test is EGFR kinase (Homo sapiens, UniProt P00533). Kind of test: Enzymatic experiment on EGFR (HTRF kinEASE-TK). The test is classed as biochemical. The conditions noted are these: ATP 1.65 μM; read-out: Kinase IC50 (nM) in vitro EGFR. How it is done:
as §3, §4

Molecules are shown by their SMILES.

Chain of ErbB2 kinase (P04626 23-1255): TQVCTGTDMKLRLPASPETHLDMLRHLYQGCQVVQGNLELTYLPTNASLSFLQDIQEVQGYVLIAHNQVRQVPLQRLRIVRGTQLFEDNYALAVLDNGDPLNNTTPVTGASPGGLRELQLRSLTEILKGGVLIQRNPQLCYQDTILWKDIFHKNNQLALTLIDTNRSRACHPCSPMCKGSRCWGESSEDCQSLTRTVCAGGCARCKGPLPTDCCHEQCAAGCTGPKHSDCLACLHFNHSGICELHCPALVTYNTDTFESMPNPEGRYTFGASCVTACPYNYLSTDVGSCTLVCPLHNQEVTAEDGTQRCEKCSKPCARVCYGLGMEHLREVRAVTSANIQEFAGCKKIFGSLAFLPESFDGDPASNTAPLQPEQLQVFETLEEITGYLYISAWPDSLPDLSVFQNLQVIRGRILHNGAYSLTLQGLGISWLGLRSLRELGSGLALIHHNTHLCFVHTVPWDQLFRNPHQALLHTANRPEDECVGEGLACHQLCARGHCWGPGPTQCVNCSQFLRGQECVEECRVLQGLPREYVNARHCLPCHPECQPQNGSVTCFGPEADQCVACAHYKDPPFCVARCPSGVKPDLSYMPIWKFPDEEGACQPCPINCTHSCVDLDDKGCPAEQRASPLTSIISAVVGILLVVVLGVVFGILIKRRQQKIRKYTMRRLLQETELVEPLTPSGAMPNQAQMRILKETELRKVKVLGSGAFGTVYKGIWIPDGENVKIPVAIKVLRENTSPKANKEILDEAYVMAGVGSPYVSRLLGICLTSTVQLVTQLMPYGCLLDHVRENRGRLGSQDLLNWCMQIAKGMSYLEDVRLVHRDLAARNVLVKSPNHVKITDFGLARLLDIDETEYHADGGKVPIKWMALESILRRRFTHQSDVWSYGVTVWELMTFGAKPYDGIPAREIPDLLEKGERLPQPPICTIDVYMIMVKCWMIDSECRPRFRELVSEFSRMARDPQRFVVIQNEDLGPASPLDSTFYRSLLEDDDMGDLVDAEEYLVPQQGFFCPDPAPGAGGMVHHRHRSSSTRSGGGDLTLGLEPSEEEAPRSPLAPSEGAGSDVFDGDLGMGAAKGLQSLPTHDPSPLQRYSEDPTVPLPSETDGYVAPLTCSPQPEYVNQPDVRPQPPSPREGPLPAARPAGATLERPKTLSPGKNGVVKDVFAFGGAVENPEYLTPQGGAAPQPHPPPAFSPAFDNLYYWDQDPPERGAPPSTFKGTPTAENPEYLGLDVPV
Chain of EGFR kinase (P00533 25-1210): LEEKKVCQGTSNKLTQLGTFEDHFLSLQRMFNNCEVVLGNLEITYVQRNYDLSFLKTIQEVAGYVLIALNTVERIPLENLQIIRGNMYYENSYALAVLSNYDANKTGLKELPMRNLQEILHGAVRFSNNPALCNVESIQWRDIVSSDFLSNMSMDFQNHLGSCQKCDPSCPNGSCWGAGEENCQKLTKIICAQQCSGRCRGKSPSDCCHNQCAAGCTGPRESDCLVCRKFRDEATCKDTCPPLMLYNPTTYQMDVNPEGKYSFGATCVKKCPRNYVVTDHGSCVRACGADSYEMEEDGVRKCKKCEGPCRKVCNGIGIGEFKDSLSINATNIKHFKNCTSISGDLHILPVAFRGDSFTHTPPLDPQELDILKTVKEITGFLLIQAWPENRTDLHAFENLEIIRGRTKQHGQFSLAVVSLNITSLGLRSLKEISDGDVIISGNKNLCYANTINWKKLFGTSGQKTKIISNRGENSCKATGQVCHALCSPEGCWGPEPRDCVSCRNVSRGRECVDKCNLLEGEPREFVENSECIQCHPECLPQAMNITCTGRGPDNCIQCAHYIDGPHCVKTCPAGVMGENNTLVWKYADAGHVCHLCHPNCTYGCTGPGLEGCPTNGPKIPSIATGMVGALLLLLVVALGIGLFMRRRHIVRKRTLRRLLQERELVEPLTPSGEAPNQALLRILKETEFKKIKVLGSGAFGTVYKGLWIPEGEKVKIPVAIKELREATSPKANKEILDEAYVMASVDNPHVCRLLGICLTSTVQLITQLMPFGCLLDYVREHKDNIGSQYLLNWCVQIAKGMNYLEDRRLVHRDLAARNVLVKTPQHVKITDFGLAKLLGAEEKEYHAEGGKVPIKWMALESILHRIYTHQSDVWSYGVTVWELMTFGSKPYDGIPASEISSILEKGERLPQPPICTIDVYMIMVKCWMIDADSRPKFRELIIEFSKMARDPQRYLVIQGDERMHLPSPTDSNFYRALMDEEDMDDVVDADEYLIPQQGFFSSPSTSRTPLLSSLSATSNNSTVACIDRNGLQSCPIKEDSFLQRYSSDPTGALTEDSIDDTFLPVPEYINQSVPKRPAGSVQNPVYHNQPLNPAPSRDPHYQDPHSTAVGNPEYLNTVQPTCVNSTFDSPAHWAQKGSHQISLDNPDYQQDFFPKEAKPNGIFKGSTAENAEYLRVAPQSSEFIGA

Regarding `Cc1cc(Nc2ncnc3ccc(NC4=NCC(C)O4)cc23)ccc1Oc1cc2nncn2cn1` (stereo not shown) [Embodiment 24, N^4-(4-([1,2,4]triazolo[4,3-c]pyrimidin-7-yloxy)-3-methylphenyl)-N^6-(5-methyl-4,5-dihydrooxazol-2-yl)quinazoline-4,6-diamine], the IC50 with BT-474 was found to be 128 nM; in the test with N87, 177 nM; on ErbB2 kinase, 4.1 nM; at EGFR kinase, 127 nM.
On the same counts, the results for `Cc1cc(Nc2ncnc3ccc(NC4=NCC5(CCN(C(=O)OC(C)(C)C)CC5)O4)cc23)ccc1Oc1cc2nncn2cn1` [Embodiment 25, tert-butyl 2-((4-((4-([1,2,4]triazolo[4,3-c]pyrimidin-7-yloxy)-3-methylphenyl)amino)quinazolin-6-yl)amino)-1-oxa-3,8-diazaspiro[4.5]dec-2-en-8-carboxylate] are 984 nM, 464 nM, 53.3 nM and 499 nM.
Take `Cc1cc(Nc2ncnc3ccc(NC4=NC5(CO4)CN(C(=O)OC(C)(C)C)C5)cc23)ccc1Oc1cc2nncn2cn1` [Embodiment 26]: the IC50 with BT-474 amounted to 122 nM; in the test on N87, 130 nM; on ErbB2 kinase, 3.8 nM; on EGFR kinase it was 96.8 nM.
On the same counts, the results for `Cc1cc(Nc2ncnc3ccc(NC4=NC5(CO4)CC(O)C5)cc23)ccc1Oc1cc2nncn2cn1` (stereo not shown) [Embodiment 27, 6-((4-((4-([1,2,4]triazolo[4,3-c]pyrimidin-7-yloxy)-3-methylphenyl)amino)quinazolin-6-yl)amino)-7-oxa-5-azaspiro[3,4]oct-5-en-2-ol] are 112 nM, 543 nM, 1.92 nM and 8.1 nM.
On the same counts, the results for `Cc1cc(Nc2ncnc3ccc(NC4=NC5(CO4)CN(C)C5)cc23)ccc1Oc1cc2nncn2cn1` [Embodiment 30, N^4-(4-([1,2,4]triazolo[4,3-c]pyrimidin-7-yloxy)-3-methylphenyl)-N^6-(2-methyl-7-oxa-2,5-diazaspiro[3.4]oct-5-en-6-yl)quinazoline-4,6-diamine] are 141 nM, 771 nM, 4.9 nM and 17.3 nM.
In the same order, the values of `Cc1cc(Nc2ncnc3ccc(NC4=NCC5(CCN(C)CC5)O4)cc23)ccc1Oc1cc2nncn2cn1` [Embodiment 31, N^4-(4-([1,2,4]triazolo[4,3-c]pyrimidin-7-yloxy)-3-methylphenyl)-N^6-(8-methyl-1-oxa-3,8-diazaspiro[4.5]dec-2-en-2-yl)quinazoline-4,6-diamine] are 187 nM, 433 nM, 10.1 nM and 57.4 nM.
Consider `CNC(=O)CN1CCC(Oc2cc3c(Nc4ccc(Oc5cc6nncn6cn5)c(C)c4)ncnc3cc2OC)CC1` [Embodiment 32, 2-(4-(7-methoxy-4-(3-methyl-4-([1,2,4]triazolo[4,3-c]pyrimidin-7-yloxy)anilino)quinazolin-6-yl)oxy-1-piperidinyl)-N-methylacetamide], for which the IC50 with BT-474 was determined as 92.6 nM; in the test on N87, 440 nM; on ErbB2 kinase, 4.3 nM; on EGFR kinase, 2 nM.
As to `COCC(=O)Nc1cccc(-c2ccc3ncnc(Nc4ccc(Oc5cc6nncn6cn5)c(C)c4)c3c2)c1` [Embodiment 34, N-(3-(4-((4-([1,2,4]triazolo[4,3-c]pyrimidin-7-yloxy)-3-methylphenyl)amino)quinazoline-6-yl)phenyl)-2-methoxyacetamide], the IC50 in the test with BT-474 worked out at 55.6 nM; in the test with N87, 46.3 nM; on ErbB2 kinase it was 2.1 nM; on EGFR kinase, 8.2 nM.
On the same counts, the results for `Cc1cc(Nc2ncnc3ccc(-c4cccc(N)c4)cc23)ccc1Oc1cc2nncn2cn1` [Embodiment 35] are 49.6 nM, 52.9 nM, 1.1 nM and 10.9 nM.
On the same counts, the results for `Cc1cc(Nc2ncnc3ccc(-c4ccc(CNCCNS(C)(=O)=O)o4)cc23)ccc1Oc1cc2nncn2cn1` [Embodiment 36, N-(2-(((5-(4-((4-([1,2,4]triazolo[4,3-c]pyrimidin-7-yloxy)-3-methylphenyl)amino)quinazolin-6-yl)furan-2-yl)methyl)amino)ethyl)methylsulfonamide] are 21.5 nM, 47.5 nM, 1.5 nM and 1.9 nM.
For the compound `CCOC(=O)Nc1cccc(-c2ccc3ncnc(Nc4ccc(Oc5cc6nncn6cn5)c(C)c4)c3c2)c1` [Embodiment 38, ethyl (3-(4-((4-([1,2,4]triazolo[4,3-c]pyrimidin-7-yloxy)-3-methylphenyl)amino)quinazoline-6-yl)phenyl)carbamate], the IC50 with BT-474 came out at 186 nM; in the test with N87, 86.6 nM; on ErbB2 kinase, 5 nM; on EGFR kinase, 28.1 nM.
`C=CC(=O)N1CCC(Oc2cc3c(Nc4ccc(Oc5cc6nncn6cn5)c(C)c4)ncnc3cc2OC)CC1` [Embodiment 41, 1-(4-((4-((4-([1,2,4]triazolo[4,3-c]pyrimidin-7-yloxy)-3-methylphenyl)amino)-7-methoxyquinazolin-6-yl)oxy)piperidin-1-yl)pro-2-en-1-one]: the IC50 turned out to be 6.9 nM with BT-474, 11.7 nM in the test with N87, 4.3 nM at ErbB2 kinase and 1.3 nM at EGFR kinase.
Take `C=C(F)C(=O)N1CCC(Oc2cc3c(Nc4ccc(Oc5cc6nncn6cn5)c(C)c4)ncnc3cc2OC)CC1` [Embodiment 42, 1-(4-((4-((4-([1,2,4]triazolo[4,3-c]pyrimidin-7-yloxy)-3-methylphenyl)amino)-7-methoxyquinazolin-6-yl)oxy)piperidin-1-yl)-2-fluoroprop-2-en-1-one]: the IC50 with BT-474 amounted to 36.7 nM; with N87 it was 39.2 nM; at ErbB2 kinase, 5.2 nM; at EGFR kinase, 8.3 nM.
On the same counts, the results for `Cc1cc(Nc2ncnc3ccc(NC4=NC5(CCC5)CO4)cc23)ccc1Oc1cc2nncn2cn1` [Embodiment 44, N^4-(4-([1,2,4]triazolo[4,3-c]pyrimidin-7-yloxy)-3-methylphenyl)-N^6-(7-oxa-5-azaspiro[3.4]oct-5-en-6-yl)quinazoline-4,6-diamine] are 41 nM, 46 nM, 1.43 nM and 11.6 nM.
On the same counts, the results for `Cc1cc(Nc2ncnc3ccc(NC4=N[C@H](C(C)C)CO4)cc23)ccc1Oc1cc2nncn2cn1` [Embodiment 45, (R)—N^4-(4-([1,2,4]triazolo[4,3-c]pyrimidin-7-yloxy)-3-methylphenyl)-N^6-(4-isopropyl-4,5-dihydrooxazol-2-yl)quinazoline-4,6-diamine] are 85.4 nM, 93.4 nM, 2.8 nM and 53.4 nM.
On the same counts, the results for `Cc1cc(Nc2ncnc3ccc(NC4=NCC5(CCOCC5)O4)cc23)ccc1Oc1cc2nncn2cn1` [Embodiment 46, N^4-(4-([1,2,4]triazolo[4,3-c]pyrimidin-7-yloxy)-3-methylphenyl)-N^6-(1,8-dioxa-3-azaspiro[4.5]dec-2-en-2-yl)quinazoline-4,6-diamine] are 172 nM, 316 nM, 12 nM and 51.6 nM.
